Consider three compounds from US8772341B2, “Compositions for the treatment of hoof diseases” (DeLaval Holding AB, priority 2006, dated 2014).

Some results are limits rather than exact numbers.

Series [1] has as its system Bovine Digital Dermatitis (BDD) associated treponeme strains. The series is described as follows: Treponema study, broth microdilution germicidal susceptibility (MIC/MBC). The format is cell-based. The note with it: for MBC (minimal bactericidal concentration): average over six Treponema cultures. The text has this:
In an experiment carried out at the University of Liverpool, Liverpool, U.K., Treponema species were isolated from dairy farms and six cultures were used to measure the minimum inhibitory concentration (MIC, the lowest concentration which results in maintenance or reduction of inoculum's viability) and minimal bactericidal concentration (MBC, the lowest concentration which results in biocidal activity) of several commonly used germicides.
Six Bovine Digital Dermatitis (BDD) associated treponeme strains (Table 1) were used to investigate in vitro susceptibility of BDD associated Treponema (Evans, N. J.; Brown, J.; Demirkan, I.; Carter, S. D.; Hart, C. A. “In vitro susceptibility of Bovine Digital Dermatitis associated Treponema to antimicrobial agents” to be submitted to Antimicrob. Agents Chemother. To be submitted for publication September 2007). The strains included two isolates from each of three distinct phylogroups corresponding to three proposed new taxa, Treponema medium subsp. bovis, Treponema bovis and Treponema pedis (Evans, N. J.; Brown, J.; Demirkan, I. Murray, R. D.; Vink, D.; Blowey, R. W.; Hart, C. A.; Carter, S. D. “Tremponema medium subsp. bovis subsp. nov., Treponema bovis sp. nov. and Treponema pedis sp. nov.; novel spirochaetes associated with Bovine Digital Dermatitis.” International Journal of Systematic and Evolutionary Microbiology. Submitted for publication Oct. 18, 2006). […]
To determine MIC values, absorbance at 540 nm was measured for the microplate wells using a Multiskan microtitre plate reader (Thermo Scientific, Hampshire, U.K.). Measurements were recorded before and after incubation at 36° C. under anaerobic conditions—three days for T. pedis strains and four days for T. bovis and T. medium subsp. bovis strains. […] Cell growth was determined by comparison of the absorbance measurement immediately before and after incubation. […]
Microplates were incubated for a further four days at 36° C. under anaerobic conditions. Growth was assessed using phase contrast microscopy. […]
(In general: In broth dilution the organism is exposed to a series of concentrations in liquid medium.)

Another series concerns E. coli (ATCC 11229). As to the kind of experiment: modified AOAC sanitizer test (germicidal activity, with or without manure). The series is classed as cell-based, Escherichia coli. How it is done:
(§1) The germicidal activity of a large number of ingredients has been tested for the ability to kill Escherichia coli and Staphylococcus aureus in mixtures that have been contaminated with 10% and 20% manure. E. coli and S. aureus were chosen as representative bacteria for screening purposes. Solutions of the mixtures with 10% manure and bacteria were prepared, and the reduction in the concentration of bacteria was determined after 30 seconds and again after 5 minutes. In addition, the formulas were evaluated for skin irritation based on in vitro test data. The testing method used was that of Wolfgang J. W. Pape, Udo Hoppe: In vitro Methods for the Assessment of Primary Local Effects of Topically Applied Preparations. Skin Pharmacol. (1991), 4: 205-212, which is incorporated herein by reference.
(§2) Experiments were performed to test the germicidal properties of the disclosed compositions using a modified version of the AOAC sanitizer test (Association of Official Analytical Chemists. 1990. Official Methods of Analysis, Pages 138-140 in Germicidal and Detergent Sanitizing Action of Disinfectants 960.09, Vol. I. 15th ed. AOAC, Arlington, Va.). According to this procedure, manure was collected from a dairy farm, dispensed into flasks and autoclaved at 121° C. and 17 psi for 30 minutes. Manure samples were then stored in a freezer until needed. When needed, manure was thawed at room temperature then dispensed into 250 mL Erlenmeyer flasks in amounts appropriate for the challenge desired (10 g for 10% manure, 20 g for 20% manure, etc.). The flasks with manure, and any empty flasks needed, were capped with aluminum foil and autoclaved at 134° C. and ˜20 psi for 4 min.
(§3) Freeze-dried pellets of E. coli (ATCC 11229) and S. aureus (ATCC 6538) were hydrated, placed in test tubes containing nutrient agar and incubated at 37° C. for 24 hours. Sterile buffer (0.0003 M phosphate adjusted to pH 6.6) was used to dilute and transfer the bacteria to additional nutrient agar tubes, which were incubated for another 24 hours. S. aureus was then diluted with buffer and transferred to nutrient agar in French bottles, and E. coli was diluted and transferred to fresh nutrient agar tubes. Both types of bacteria were incubated at 37° C. for 72 hours. E. coli was then diluted and transferred to nutrient agar in French bottles. Sterile buffer and glass beads were added to the S. aureus French bottles and the solution was vacuum filtered through a #2 filter. […] After 24 hours, the E. coli suspension was collected in the same manner.
(§4) Germicide sample solutions were prepared and dispensed into the flasks containing manure. For tests without manure, 99 mL of germicide were added to an empty, sterile, 250 mL flask. […]

The subject of a further series is S. aureus (ATCC 6538). Described as above. The format is cell-based, Staphylococcus aureus. How it is done:
as §1, §2, §3, §4

For a further series, the system named is red blood cells. The series is described as follows: in vitro irritation test on isolated red blood cells (haemolysis, denaturation). The format is cell-based, calf. The note with it: 18% solution. The procedure:
as §1
Irritation tests were performed to determine whether or not the disclosed compositions would be mild enough for topical application. These tests involved two measurements made on fresh calf blood, where red blood cells were isolated by adding 50 mL of sodium citrate buffer (17.03 g trisodium citrate+8.45 g citric acid diluted to 1 L with bacteria-free DI water) to every 450 mL of blood, then repetitively washing with sodium citrate buffer and centrifuging to remove white blood cells and plasma.
Compositions disclosed herein were introduced into a container containing the isolated red blood cells and values for Haemolysis (H50); a Denaturation Index value (DI); and a Lysis/Denaturation Ratio (L/D) were determined using methods disclosed by Wolfgang J. W. Pape, Udo Hoppe: In vitro Methods for the Assessment of Primary Local Effects of Topically Applied Preparations. Skin Pharmacol. (1991), 4: 205-212. The haemolysis—or tendency of the red blood cells to rupture when in contact with the test product—was measured by the half-haemolysis value H50. The denaturation of protein caused by the test product was measured by the denaturation index (DI). The overall irritation value for a product was determined by the ratio of the H50/DI which is referred to as the lysis/denaturation quotient. The overall irritation score is given by the lysis/denaturation value which is calculated by the equation: L/D=H50 (measured in ppm)/DI (measured in %).
The higher the ppm value for H50 the less irritating the product. A crude scale is H50>500 ppm (non-irritant); 120-500 (slight irritant), 30-120 (moderate irritant), 10-30 (irritant) and 0-10 (strong irritant).
The L/D ratio is the primary value used to determine irritation. […]

Series [2] has as its system hoof diseases (heel erosion, interdigital dermatitis, foot rot, white line abscess, digital dermatitis). The series is described as follows: field trial of hoof bath at a commercial dairy farm. The series is classed as in vivo, cows. Particulars: for Digital Dermatitis, number of hooves / Foot Rot, number of hooves / Heel Erosion, number of hooves / Interdigital Dermatitis, number of hooves / Total number of hoof problems / White Line Abscess, number of hooves: 178 hooves. The procedure:
An 18% solution of N,N-bis(3-aminopropyl)dodecylamine with 0.17% FD&C Red #40 and 0.28% FD&C Yellow #5 was tested in a field trial at a commercial dairy farm. The product was diluted at a rate of 1+66 V/V and used to fill a hoof bath trough that the cows walked through as they left the milking parlor. A fresh hoof bath solution was prepared every day and the cows walked through the solution once each day of the week. For a month before the trial began no hoof bath treatment was applied to the cows. At the start of the trial a complete evaluation of the front and hind hooves was performed by a certified hoof trimmer, along with a veterinarian, who recorded the diseases observed in each hoof. The evaluation of the hooves was again performed after the hoof bath had been used for two months. All hooves that were present for both evaluations, and were not were not treated with antibiotics and wrapped at the first evaluation, were included in the data. […] The trial included 178 hooves.

Setting [3] is: 18% solution diluted 1+33 with potable water, 5 minutes exposure, 20% manure.
Setting [4] is: 18% solution diluted 1+66 with potable water (0.27%), 30 seconds exposure, 20% manure.
The mark [5] stands for this setting: 18% solution diluted 1+66 with potable water (0.27%), 5 minutes exposure, no manure.
Setting [6] is: 18% solution diluted 1+180 with potable water (0.1%), 5 minutes exposure, 10% manure.
The mark [7] stands for this setting: Primary Evaluation (start of trial, before hoof bath).
Setting [8] is: Secondary Evaluation after two months of daily hoof bath, 1+66 V/V.

Turning to `CCCCCCCCCCCCN(CCCN)CCCN` [N,N-bis(3-aminopropyl)dodecylamine], the “MBC (minimal bactericidal concentration)” value in series [1] is listed as 0.00051 % w/w. For the same compound, the log reduction is given as > 8.0 log with E. coli (ATCC 11229) (setting [3]); > 8 log with E. coli (ATCC 11229) (setting [4]); > 8 log in the series with E. coli (ATCC 11229) (setting [5]); > 7.97 log with E. coli (ATCC 11229) (setting [6]); > 7.94 log in the series with S. aureus (ATCC 6538) (setting [3]); 4.8 log in the series on S. aureus (ATCC 6538) (setting [4]). For the same compound, the log reduction in the series with S. aureus (ATCC 6538) (setting [5]) is > 8 log; in the series with S. aureus (ATCC 6538) (setting [6]), > 7.94 log. The “skin irritation (conclusion from L/D)” value in the series with red blood cells is recorded as “does not cause skin irritation”. Besides, the “combined L/D value (lysis/denaturation ratio)” value with red blood cells (L/D = H50/DI) is on record as 7×10^3. The “DI value (denaturation index)” value in the series with red blood cells (calf red blood cells) is on record as 2.6%. Moreover, in the series on red blood cells (calf red blood cells), the “H50 value (half-haemolysis)” value worked out at 18000 ppm. The entries for the “Digital Dermatitis, number of hooves” value in series [2] (setting [7]) and in series [2] (setting [8]) were 33 and 25, respectively. Also, the “Foot Rot, number of hooves” value in series [2] (setting [7]) and in series [2] (setting [8]) was 0 in each case. For the same compound, the “Heel Erosion, number of hooves” value in series [2] (setting [7]) is recorded as 43; in series [2] (Secondary Evaluation after two months of daily hoof bath, 18% solution with dyes diluted 1+66 V/V), 25. Moreover, the “Interdigital Dermatitis, number of hooves” value in series [2] (setting [7]) is 2; in series [2] (setting [8]), 0. For the same compound, the “Total number of hoof problems” value turned out to be 78 in series [2] (setting [7]) and 51 in series [2] (setting [8]). Also, the “White Line Abscess, number of hooves” value in series [2] (setting [7]) came out at 0; in series [2] (setting [8]), 1. For the same compound, the “reduction in the total number of hoof problems” value in series [2] (after two months of hoof bath treatment) is recorded as ~35%. For the same compound, in series [2] (after two months of treatment), the “hooves with digital dermatitis at the beginning of the trial that were cured” value is reported as “Forty”. In addition, the “hooves not infected at the beginning that did not develop any signs of digital dermatitis” value in series [2] (by the end of the two month treatment) is “ninety”.
With `O=S(=O)([O-])[O-].[Cu+2]` [copper sulfate], the “MBC (minimal bactericidal concentration)” value in series [1] worked out at 0.0054 % w/w.
For `C=O` [formaldehyde], the “average MEC” value in series [1] (six Treponema cultures) is reported as 0.0094 % w/w.
